≈ marks a conversion by molar mass, not a printed value. Read-outs that look alike come from different tables or passages of the source.
Tests used:
Type in all cases: cell-based
Botrtyis cinerea (Bc) = assay: In vitro pathogen growth inhibition assay, Bc; settings: 48 h
Procedure, shortened: (§1)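 Spores in 17% V8 liquid medium, or 1.5 mm Rs mycelial plugs in ¼ PDB, incubated with compound; final concentration checked by OD600 for precipitation. OD readings at 24 and 48 h, blank-subtracted, plus visual ratings; value is concentration giving ≥90% growth inhibition.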

[1] = tested on: Collectotrichum graminicola (Cg); assay: In vitro pathogen growth inhibition assay, Cg; settings: 48 h
Procedure, shortened: as §1

Diplodia maydis (Dm) = assay: In vitro pathogen growth inhibition assay, Dm; settings: Stenocarpella maydis, 48 h
Procedure, shortened: (§2)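 Spores of Dm, Fv and Pc were diluted in 17% V8 liquid medium; Rs used 1.5 mm mycelial plugs in ¼ PDB. Compounds from 2.5 mg/ml DMSO stocks were combined with inoculum, growth was read by OD600 at 24 and 48 h with blank subtraction, and the reported value is the concentration giving ≥90% inhibition.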

[2] = tested on: Fusarium moniliforme (Fm); assay: In vitro pathogen growth inhibition assay, Fm; settings: Fusarium verticillioides
Procedure, shortened: as §1

[3] = tested on: Fusarium virguliforme (Fv); assay: In vitro pathogen growth inhibition assay, Fv
Procedure, shortened: as §2

[4] = tested on: Phytophthora capsici (Pc); assay: In vitro pathogen growth inhibition assay, Pc; settings: 48 h
Procedure, shortened: as §2

Rhizoctonia solani (Rs) = assay: In vitro pathogen growth inhibition assay, Rs (mycelial plugs); settings: Rhizoctonia solani, 48 h, mycelial plugs
Procedure, shortened: as §2

Septoria tritici (St) = assay: In vitro pathogen growth inhibition assay, St; settings: Zymoseptoria tritici, 48 h
Procedure, shortened: as §1

[5] = tested on: Saccharomyces cerevisiae (Sc); assay: Yeast growth inhibition assay; settings: for IC75: Saccharomyces cerevisiae, ≥75% inhibition, read-out: Compound Concentration (ppm) sufficient for ≥75% inhibition, Sc
Protocol: Both tables list the concentration of each compound that was sufficient to ≥90% inhibition of growth for each of the fungal pathogens listed above. In addition, some of compounds were tested in a yeast growth inhibition assay for Saccharomyces cerevisiae (Sc). Table 2 lists the concentration of the tested compound that was sufficient to ≥75% inhibition of Saccharomyces cerevisiae (Sc).

[6] = ≥90% inhibition, 48 hours vs 2% DMSO control, read-out: Compound Concentration (ppm) sufficient for ≥90% inhibition of growth, Bc
[7] = ≥90% inhibition, 48 hours vs 2% DMSO control, read-out: Compound Concentration (ppm) sufficient for ≥90% inhibition of growth, Cg
[8] = ≥90% inhibition, 48 hours vs 2% DMSO control, read-out: Compound Concentration (ppm) sufficient for ≥90% inhibition of growth, Dm
[9] = ≥90% inhibition, 48 hours vs 2% DMSO control, read-out: Compound Concentration (ppm) sufficient for ≥90% inhibition of growth, Fm
[10] = ≥90% inhibition, 48 hours vs 2% DMSO control, read-out: Compound Concentration (ppm) sufficient for ≥90% inhibition of growth, Fv
[11] = ≥90% inhibition, 48 hours vs 2% DMSO control, read-out: Compound Concentration (ppm) sufficient for ≥90% inhibition of growth, Pc
[12] = ≥90% inhibition, 48 hours vs 2% DMSO control, read-out: Compound Concentration (ppm) sufficient for ≥90% inhibition of growth, Rs
[13] = ≥90% inhibition, 48 hours vs 2% DMSO control, read-out: Compound Concentration (ppm) sufficient for ≥90% inhibition of growth, St
[14] = ≥90% growth inhibition, 48 hours, vs 2% DMSO control, read-out: Compound Concentration (ppm) sufficient for ≥90% inhibition of Bc
[15] = ≥90% growth inhibition, 48 hours, vs 2% DMSO control, read-out: Compound Concentration (ppm) sufficient for ≥90% inhibition of Cg
[16] = ≥90% growth inhibition, 48 hours, vs 2% DMSO control, read-out: Compound Concentration (ppm) sufficient for ≥90% inhibition of Dm
[17] = ≥90% growth inhibition, 48 hours, vs 2% DMSO control, read-out: Compound Concentration (ppm) sufficient for ≥90% inhibition of Fm
[18] = ≥90% growth inhibition, 48 hours, vs 2% DMSO control, read-out: Compound Concentration (ppm) sufficient for ≥90% inhibition of Fv
[19] = ≥90% growth inhibition, 48 hours, vs 2% DMSO control, read-out: Compound Concentration (ppm) sufficient for ≥90% inhibition of Pc
[20] = ≥90% growth inhibition, 48 hours, vs 2% DMSO control, read-out: Compound Concentration (ppm) sufficient for ≥90% inhibition of Rs
[21] = ≥90% growth inhibition, 48 hours, vs 2% DMSO control, read-out: Compound Concentration (ppm) sufficient for ≥90% inhibition of St

IC90 (Botrtyis cinerea (Bc); [6]) [mg/L]	IC90 [1, 7] [mg/L]	IC90 (Diplodia maydis (Dm); [8]) [mg/L]	IC90 [2, 9] [mg/L]	IC90 [3, 10] [mg/L]	IC90 [4, 11] [mg/L]	IC90 (Rhizoctonia solani (Rs); [12]) [mg/L]	IC90 (Septoria tritici (St); [13]) [mg/L]	IC90 (Botrtyis cinerea (Bc); [14]) [mg/L]	IC90 [1, 15] [mg/L]	IC90 (Diplodia maydis (Dm); [16]) [mg/L]	IC90 [2, 17] [mg/L]	IC90 [3, 18] [mg/L]	IC90 [4, 19] [mg/L]	IC90 (Rhizoctonia solani (Rs); [20]) [mg/L]	IC90 (Septoria tritici (St); [21]) [mg/L]	Structure (SMILES)	IC75 [5] [mg/L]	Compound Concentration (ppm) sufficient for ≥75% inhibition of Sc [5] [ppm]
2 (≈ 3.07 µM)	> 50	10 (≈ 15.4 µM)	0.4 (≈ 0.615 µM)	2 (≈ 3.07 µM)	> 50	50 (≈ 76.8 µM)	> 50	–	–	–	–	–	–	–	–	COc1ccccc1[C@H](Cn1c(=O)n(C(C)(C)C(=O)N2CCCCC2)c(=O)c2c(C)c(-c3ncco3)sc21)O[C@H]1CC[C@@H](O)CC1 [Compound I-110]	33.3 (≈ 51.2 µM)	–
2 (≈ 3.14 µM)	10 (≈ 15.7 µM)	10 (≈ 15.7 µM)	0.4 (≈ 0.628 µM)	2 (≈ 3.14 µM)	> 50	10 (≈ 15.7 µM)	50 (≈ 78.5 µM)	–	–	–	–	–	–	–	–	COc1ccccc1[C@H](Cn1c(=O)n(C(C)(C)C(=O)N2CCCC2)c(=O)c2c(C)c(-c3ncco3)sc21)O[C@H]1CC[C@@H](O)CC1 [Compound I-111]	3.7 (≈ 5.81 µM)	–
2 (≈ 3.15 µM)	≥ 2	10 (≈ 15.8 µM)	0.4 (≈ 0.63 µM)	10 (≈ 15.8 µM)	> 50	50 (≈ 78.8 µM)	50 (≈ 78.8 µM)	–	–	–	–	–	–	–	–	COc1ccccc1[C@H](Cn1c(=O)n(C(C)(C)C(=O)N2CCCC2)c(=O)c2c(C)c(-c3ncco3)sc21)OC1CCC(=O)CC1 [Compound I-112]	3.7 (≈ 5.83 µM)	–
2 (≈ 3.35 µM)	50 (≈ 83.8 µM)	10 (≈ 16.8 µM)	2 (≈ 3.35 µM)	≥ 10	> 50	> 50	> 50	–	–	–	–	–	–	–	–	COc1ccccc1[C@H](Cn1c(=O)n(C(C)(C)C(=O)N2CCOCC2)c(=O)c2c(C)c(-c3ncco3)sc21)OC(C)C [Compound I-143]	11 (≈ 18.4 µM)	–
10 (≈ 18 µM)	50 (≈ 90.1 µM)	10 (≈ 18 µM)	2 (≈ 3.61 µM)	10 (≈ 18 µM)	> 50	> 50	> 50	–	–	–	–	–	–	–	–	CCNC(=O)C(C)(C)n1c(=O)c2c(C)c(-c3ncco3)sc2n(C[C@H](OC(C)C)c2ccccc2OC)c1=O [Compound I-144]	11 (≈ 19.8 µM)	–
50 (≈ 87.9 µM)	50 (≈ 87.9 µM)	50 (≈ 87.9 µM)	2 (≈ 3.52 µM)	> 50	> 50	> 50	> 50	–	–	–	–	–	–	–	–	COc1ccccc1[C@H](Cn1c(=O)n(C(C)(C)C(N)=O)c(=O)c2c(C)c(-c3ncco3)sc21)OC1CCOCC1 [Compound I-145]	> 33	–
10 (≈ 17.4 µM)	50 (≈ 87.2 µM)	> 50	2 (≈ 3.49 µM)	2 (≈ 3.49 µM)	> 50	50 (≈ 87.2 µM)	> 50	–	–	–	–	–	–	–	–	COc1ccc(F)cc1[C@H](Cn1c(=O)n(C(C)(C)C(N)=O)c(=O)c2c(C)c(C3CCC3)sc21)OC1CCOCC1 [Compound I-147]	33 (≈ 57.5 µM)	–
10 (≈ 16.4 µM)	50 (≈ 82.1 µM)	> 10	2 (≈ 3.29 µM)	50 (≈ 82.1 µM)	> 50	50 (≈ 82.1 µM)	> 50	–	–	–	–	–	–	–	–	COc1ccc(F)cc1[C@H](Cn1c(=O)n(CCS(N)(=O)=O)c(=O)c2c(C)c(-c3ncco3)sc21)OC1CCOCC1 [Compound I-148]	33 (≈ 54.2 µM)	–
10 (≈ 16.3 µM)	50 (≈ 81.6 µM)	50 (≈ 81.6 µM)	2 (≈ 3.26 µM)	2 (≈ 3.26 µM)	> 50	> 50	> 50	–	–	–	–	–	–	–	–	COc1ccc(F)cc1[C@H](Cn1c(=O)n(C(C)(C)C(N)=O)c(=O)c2c(C)c(-c3ncco3)sc21)OCC1CCC(=O)CC1 [Compound I-149]	11 (≈ 18 µM)	–
10 (≈ 16.3 µM)	50 (≈ 81.5 µM)	10 (≈ 16.3 µM)	2 (≈ 3.26 µM)	2 (≈ 3.26 µM)	> 50	> 50	> 50	–	–	–	–	–	–	–	–	COc1ccc(F)cc1[C@H](Cn1c(=O)n(C(C)(C)C(=O)N2CCOCC2)c(=O)c2c(C)c(-n3cccn3)sc21)OC(C)C [Compound I-151]	11 (≈ 17.9 µM)	–
10 (≈ 15.7 µM)	50 (≈ 78.3 µM)	50 (≈ 78.3 µM)	2 (≈ 3.13 µM)	> 50	> 50	> 50	> 50	–	–	–	–	–	–	–	–	COc1ccccc1[C@H](Cn1c(=O)n(C(C)(C)C(=O)N2CCOCC2)c(=O)c2c(C)c(-c3ncco3)sc21)OC1CCOCC1 [Compound I-152]	> 33	–
2 (≈ 3.76 µM)	> 50	50 (≈ 93.9 µM)	2 (≈ 3.76 µM)	> 50	> 50	50 (≈ 93.9 µM)	> 50	–	–	–	–	–	–	–	–	CCOC(=O)c1sc2c(c1C)c(=O)n(C(C)(C)C(=O)O)c(=O)n2C[C@H](OC(C)C)c1ccccc1OC [Compound I-153]	> 33.3	–
2 (≈ 3.44 µM)	50 (≈ 86.1 µM)	10 (≈ 17.2 µM)	2 (≈ 3.44 µM)	50 (≈ 86.1 µM)	> 50	> 50	> 50	–	–	–	–	–	–	–	–	COc1ccccc1[C@H](Cn1c(=O)n(C(C)(C)C(N)=O)c(=O)c2c(C)c(-c3ncco3)sc21)OC1CCC(=O)CC1 [Compound I-154]	3.7 (≈ 6.37 µM)	–
2 (≈ 3.76 µM)	50 (≈ 94.1 µM)	10 (≈ 18.8 µM)	2 (≈ 3.76 µM)	10 (≈ 18.8 µM)	> 50	50 (≈ 94.1 µM)	> 50	–	–	–	–	–	–	–	–	CCOC(=O)c1sc2c(c1C)c(=O)n(C(C)(C)C(N)=O)c(=O)n2C[C@H](OC(C)C)c1ccccc1OC [Compound I-155]	33.3 (≈ 62.6 µM)	–
–	–	–	–	–	–	–	–	0.4 (≈ 0.623 µM)	0.4 (≈ 0.623 µM)	2 (≈ 3.12 µM)	≥ 0.4	≥ 0.4	> 50	2 (≈ 3.12 µM)	≥ 10	CCOC(=O)c1sc2c(c1C)c(=O)n(C(C)(C)C(=O)N1CCCCC1)c(=O)n2C[C@H](OC1CCOCC1)c1ccccc1OC [Compound I-168]	–	1.2
–	–	–	–	–	–	–	–	10 (≈ 16.8 µM)	50 (≈ 83.8 µM)	≥ 10	≥ 0.4	50 (≈ 83.8 µM)	> 50	> 50	> 50	CCNC(=O)C(C)(C)n1c(=O)c2c(C)c(-c3ncco3)sc2n(C[C@H](OC2CCOCC2)c2ccccc2OC)c1=O [Compound I-169]	–	11.0

Reference: patent publication US10941157B2, “Pesticidal compositions and uses thereof” (Gilead Apollo, LLC, priority 2015, dated 2021)
